Source: patent US7868007B2, “Triazolopyridine carboxamide derivatives, preparation thereof and therapeutic use thereof” (sanofi-aventis, priority 2007, dated 2011)

What was measured:
[1] = target: T1, MGL (monoacyl glycerol lipase) enzyme (Mus musculus, UniProt O35678); assay: radioenzymatic assay of MGL inhibition (hydrolysis of [3H] 2-OG by mouse brain homogenate); assay type: biochemical; details: 50 μM 2-OG with [3H] 2-OG, 20 minutes preincubation, 20 minutes incubation at ambient temperature, read-out: IC50 (concentration which inhibits 50% of the control enzymatic activity of MGL)
T1 construct: the source of MGL enzyme is a homogenate of mouse brain from which the cerebellum and the medulla oblongata have been removed; from tissue; host or cells: mouse brain homogenate (cerebellum and medulla oblongata removed)
T1 sequence (O35678 1-303): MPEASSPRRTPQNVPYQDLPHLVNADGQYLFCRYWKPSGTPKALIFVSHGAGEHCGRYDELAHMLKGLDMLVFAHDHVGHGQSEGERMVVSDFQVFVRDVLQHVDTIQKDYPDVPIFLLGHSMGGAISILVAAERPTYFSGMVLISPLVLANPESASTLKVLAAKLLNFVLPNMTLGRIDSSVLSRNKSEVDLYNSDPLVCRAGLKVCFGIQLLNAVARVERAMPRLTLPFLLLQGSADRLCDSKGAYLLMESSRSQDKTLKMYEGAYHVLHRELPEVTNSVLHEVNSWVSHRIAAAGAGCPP
Procedure: The inhibitory activity with respect to MGL is given by the concentration which inhibits 50% of the activity of MGL.
The inhibitory activity was measured in a radioenzymatic assay based on measuring the product of hydrolysis of 2-oleoyl glycerol ([^3H] 2-OG) by MGL. The products of hydrolysis of [^3H] 2-OG, labeled on the glycerol, are oleic acid and [^3H]glycerol, and the source of MGL enzyme is a homogenate of mouse brain from which the cerebellum and the medulla oblongata have been removed. The mouse brains are removed, and stored at −80° C. until they are used or homogenized immediately for twice 5 seconds using a Precellys apparatus at 5000 rpm (Bertin) in a 10 mM tris-HCl, 150 mM NaCl, 1 mM EDTA buffer (pH 8) at 4° C. The concentration of the homogenates is then adjusted to 7.5 μg/μl.
The dilution series of the compounds is prepared from stock solutions at 20 mM in 100% DMSO. […]
Assaying of the MGL activity is carried out in a 96-well microplate in a final reaction volume of 100 μl. […] After stirring for 10 minutes, the microplate is centrifuged for 15 minutes at 4000 g and a 30 μl aliquot of the aqueous phase containing the [^3H]glycerol produced is removed and then counted for 5 minutes by liquid scintillation (Wallac 1450 Microbeta).

SMILES | IC50 [1] | melting point
O=C(N1CCN(C(c2ccccc2)c2ccccc2)CC1)n1nnc2ncccc21 [Compound 1, (4-Benzhydrylpiperazin-1-yl)[1,2,3]triazolo[4,5-b]pyridin-1-ylmethanone] | 4 nM | 146 to 148 °C (dec.)
O=C(N1CCN(C2c3ccccc3CCc3ccccc32)CC1)n1nnc2ncccc21 [Compound 7, [4-(10,11-Dihydro-5H-dibenzo[a,d]cyclohepten-5-yl)piperazin-1-yl][1,2,3]triazolo[4,5-b]-pyridin-1-ylmethanone] | 25 nM | 190 to 194 °C (dec.)
O=C(N1CCN(C2c3ccccc3-c3ccccc32)CC1)n1nnc2ncccc21 [Compound 8, [4-(9H-Fluoren-9-yl)piperazin-1-yl][1,2,3]triazolo[4,5-b]pyridin-1-ylmethanone] |  | 170 to 172 °C (dec.)

The next lines start with the values.

IC50 [1] | melting point | SMILES
 | 173 to 175 °C (dec.) | O=C(N1CCN(C(c2ccccc2)c2ccccc2)CC1)n1nnc2ncc(Cl)cc21 [Compound 2, (4-Benzhydrylpiperazin-1-yl)(6-chloro[1,2,3]triazolo[4,5-b]pyridin-1-yl)methanone]
 | 151 to 153 °C (dec.) | O=C(N1CCN(C(c2ccc(F)cc2)c2ccc(F)cc2)CC1)n1nnc2ncccc21 [Compound 3, {4-[Bis(4-fluorophenyl)methyl]piperazin-1-yl}[1,2,3]triazolo[4,5-b]pyridin-1-ylmethanone]
 | 163 to 165 °C (dec.) | O=C(N1CCN(C(c2ccc(Cl)cc2)c2ccc(Cl)cc2)CC1)n1nnc2ncccc21 [Compound 4, {4-[Bis(4-chlorophenyl)methyl]piperazin-1-yl}[1,2,3]triazolo[4,5-b]pyridin-1-ylmethanone]
 | 167 to 169 °C (dec.) | O=C(N1CCN(C(c2ccc(F)cc2)c2ccc(F)cc2)CC1)n1nnc2ncc(Cl)cc21 [Compound 5, {4-[Bis(4-fluorophenyl)methyl]piperazin-1-yl}(6-chloro[1,2,3]triazolo[4,5-b]pyridin-1-yl)-methanone]
